Experimental data: ChEMBL document CHEMBL1833864, “N'-(arylsulfonyl)pyrazoline-1-carboxamidines as novel, neutral 5-hydroxytryptamine 6 receptor (5-HT₆R) antagonists with unique structural features” (J Med Chem, 2011)

Key:
[1] = target: 5-hydroxytryptamine receptor 6 (Homo sapiens, UniProt P50406); assay: Displacement of [3H]-methyllysergic acid diethylamide from human 5-HT6 receptor expressed in CHO cells after 30 mins by liquid scintillation counting; assay type: cell-based
in vitro [2] = conditions: Sprague-Dawley, rat, hepatocytes
in vitro [3] = conditions: human, hepatocytes
[4] = Tmax in Wistar rat; assay type: ADME, organism-based; conditions: in vivo
[5] = Oral bioavailability in Wistar rat at 10 mg/kg; assay type: ADME, organism-based; conditions: in vivo
Cytochrome P450 3A4 = Cytochrome P450 3A4 (Homo sapiens, UniProt P08684); assay: Inhibition of CYP 3A4; assay type: ADME
Cavia porcellus [6] = assay: Cardiotoxicity in telemetered conscious freely moving Dunkin-Hartley guinea pig assessed as prolongation of electrocardiographic QTc interval at 100 mg/kg, sc administered for 120 mins; assay type: toxicity, organism-based; set-up: dose 100 mg/kg, route subcutaneous; conditions: in vivo, 2 h
Cytochrome P450 2C19 = Cytochrome P450 2C19 (Homo sapiens, UniProt P33261); assay: Inhibition of CYP 2C19; assay type: ADME
Cytochrome P450 2D6 = Cytochrome P450 2D6 (Homo sapiens, UniProt P10635); assay: Inhibition of CYP 2D6; assay type: ADME
[7] = Fraction unbound in rat brain homogenate at 1 uM after 6 hrs by […]; assay type: ADME, tissue-based
[8] = Ratio of drug level in brain to plasma in Wistar rat at 10 mg/kg, po; assay type: ADME, organism-based; set-up: dose 10 mg/kg, route oral; conditions: brain and plasma
[9] = Half life in Wistar rat plasma at 10 mg/kg, po; assay type: ADME, organism-based; set-up: dose 10 mg/kg, route oral
[10] = Half life in Wistar rat plasma at 1 mg/kg, iv; assay type: ADME, organism-based; set-up: dose 1 mg/kg, route intravenous
Cytochrome P450 2C9 = Cytochrome P450 2C9 (Homo sapiens, UniProt P11712); assay: Inhibition of CYP 2C9; assay type: ADME
Cytochrome P450 1A2 = Cytochrome P450 1A2 (Homo sapiens, UniProt P05177); assay: Inhibition of CYP 1A2; assay type: ADME
[11] = Plasma protein binding in human at 5 uM by LC/MS/MS analysis; assay type: ADME, cell-free; conditions: read-out: PPB (converted)
[12] = Bioavailability in Wistar rat at 10 mg/kg, ip; assay type: ADME, organism-based; conditions: in vivo
[13] = target: 5-hydroxytryptamine receptor 2B (Homo sapiens, UniProt P41595); assay: Inhibition of human 5-HT2B receptor
[14] = target: Voltage-gated inwardly rectifying potassium channel KCNH2 (Homo sapiens, UniProt Q12809)
LLC-PK1 = conditions: pig
Description: Permeability across pig LLC-PK1 cell line overexpressing human MDR1 at 3 hrs by LC/MS analysis

Cavia porcellus [15] = assay: Cardiotoxicity in telemetered conscious freely moving Dunkin-Hartley guinea pig assessed as prolongation of electrocardiographic QTc interval at 10 mg/kg, po measured up to 120 mins; assay type: toxicity, organism-based; set-up: dose 10 mg/kg, route oral; conditions: in vivo, 2 h
Cavia porcellus [16] = assay: Cardiotoxicity in telemetered conscious freely moving Dunkin-Hartley guinea pig assessed as prolongation of electrocardiographic QTc interval at 50 mg/kg, po measured up to 120 mins; assay type: toxicity, organism-based; set-up: dose 50 mg/kg, route oral; conditions: in vivo, 2 h
[17] = Plasma protein binding in rat at 5 uM by LC/MS/MS analysis; assay type: ADME, cell-free; conditions: read-out: PPB (converted)
[18] = target: 5-hydroxytryptamine receptor 3A (Homo sapiens, UniProt P46098); assay: Inhibition of human 5-HT3 receptor
[19] = target: Muscarinic acetylcholine receptor M1 (Homo sapiens, UniProt P11229); assay: Inhibition of human muscarinic M1 receptor
[20] = target: T1, 5-hydroxytryptamine receptor 1A (Homo sapiens, UniProt P08908); assay: Inhibition of human 5-HT1A receptor
T1 sequence (P08908 whole entry): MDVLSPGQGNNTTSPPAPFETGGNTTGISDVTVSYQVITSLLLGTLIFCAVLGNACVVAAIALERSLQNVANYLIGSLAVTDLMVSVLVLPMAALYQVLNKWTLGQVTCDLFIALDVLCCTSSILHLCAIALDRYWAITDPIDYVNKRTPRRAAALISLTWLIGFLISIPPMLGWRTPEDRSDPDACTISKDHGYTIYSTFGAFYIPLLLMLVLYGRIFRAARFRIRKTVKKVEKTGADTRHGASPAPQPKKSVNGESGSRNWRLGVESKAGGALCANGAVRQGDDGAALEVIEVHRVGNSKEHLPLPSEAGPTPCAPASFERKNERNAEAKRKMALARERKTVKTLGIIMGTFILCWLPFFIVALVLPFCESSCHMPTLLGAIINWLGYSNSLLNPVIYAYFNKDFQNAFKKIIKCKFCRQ

[21] = target: 5-hydroxytryptamine receptor 1D (Homo sapiens, UniProt P28221); assay: Inhibition of human 5-HT1D receptor
[22] = target: Muscarinic acetylcholine receptor M2 (Homo sapiens, UniProt P08172); assay: Inhibition of human muscarinic M2 receptor
[23] = target: Muscarinic acetylcholine receptor M3 (Homo sapiens, UniProt P20309); assay: Inhibition of human muscarinic M3 receptor
[24] = target: Muscarinic acetylcholine receptor M4 (Homo sapiens, UniProt P08173); assay: Inhibition of human muscarinic M4 receptor
[25] = target: Muscarinic acetylcholine receptor M5 (Homo sapiens, UniProt P08912); assay: Inhibition of human muscarinic M5 receptor
[26] = Inhibition of human sigma receptor
[27] = target: 5-hydroxytryptamine receptor 2A (Homo sapiens, UniProt P28223); assay: Inhibition of human 5-HT2A receptor
[28] = target: 5-hydroxytryptamine receptor 2C (Homo sapiens, UniProt P28335); assay: Inhibition of human 5-HT2C receptor
[29] = target: 5-hydroxytryptamine receptor 7 (Homo sapiens, UniProt P34969); assay: Inhibition of human 5-HT7 receptor
D(2) dopamine receptor = D(2) dopamine receptor (Homo sapiens, UniProt P14416); assay: Inhibition of human dopamine D2 receptor
D(2) dopamine receptor, sequence (P14416 whole entry): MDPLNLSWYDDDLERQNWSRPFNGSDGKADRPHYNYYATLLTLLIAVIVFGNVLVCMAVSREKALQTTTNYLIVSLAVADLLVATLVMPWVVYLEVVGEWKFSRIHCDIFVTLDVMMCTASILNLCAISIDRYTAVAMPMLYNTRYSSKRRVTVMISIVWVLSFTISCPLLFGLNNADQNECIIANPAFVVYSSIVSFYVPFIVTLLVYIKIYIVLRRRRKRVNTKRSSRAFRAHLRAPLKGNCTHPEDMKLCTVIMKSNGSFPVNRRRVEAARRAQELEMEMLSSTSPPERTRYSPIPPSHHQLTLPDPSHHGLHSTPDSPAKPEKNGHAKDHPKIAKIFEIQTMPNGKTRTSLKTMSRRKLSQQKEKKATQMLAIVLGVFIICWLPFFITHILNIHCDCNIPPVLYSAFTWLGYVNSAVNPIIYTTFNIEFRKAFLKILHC

5-hydroxytryptamine receptor 1D, sequence (P28221 whole entry): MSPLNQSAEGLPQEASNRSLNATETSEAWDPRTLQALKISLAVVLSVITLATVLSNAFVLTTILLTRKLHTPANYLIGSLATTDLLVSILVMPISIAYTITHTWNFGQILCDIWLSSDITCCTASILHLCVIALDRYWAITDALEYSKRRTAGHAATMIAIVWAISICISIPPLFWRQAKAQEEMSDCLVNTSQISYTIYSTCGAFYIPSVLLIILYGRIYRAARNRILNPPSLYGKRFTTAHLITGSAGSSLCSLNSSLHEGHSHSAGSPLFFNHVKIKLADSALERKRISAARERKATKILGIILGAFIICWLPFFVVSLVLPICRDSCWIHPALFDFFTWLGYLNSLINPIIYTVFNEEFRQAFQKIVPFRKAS
5-hydroxytryptamine receptor 6, sequence (P50406 whole entry): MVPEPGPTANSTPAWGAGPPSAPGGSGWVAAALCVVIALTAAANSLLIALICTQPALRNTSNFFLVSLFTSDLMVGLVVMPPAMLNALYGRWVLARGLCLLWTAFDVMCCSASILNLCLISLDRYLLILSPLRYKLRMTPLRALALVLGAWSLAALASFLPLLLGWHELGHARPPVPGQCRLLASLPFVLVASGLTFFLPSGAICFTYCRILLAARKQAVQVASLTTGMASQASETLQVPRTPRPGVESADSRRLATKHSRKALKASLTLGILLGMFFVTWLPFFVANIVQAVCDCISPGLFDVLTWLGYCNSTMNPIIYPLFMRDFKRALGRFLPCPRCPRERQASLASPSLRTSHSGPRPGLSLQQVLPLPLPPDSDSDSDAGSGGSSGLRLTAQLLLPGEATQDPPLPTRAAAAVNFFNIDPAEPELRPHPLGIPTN
Voltage-gated inwardly rectifying potassium channel KCNH2, sequence (Q12809 whole entry): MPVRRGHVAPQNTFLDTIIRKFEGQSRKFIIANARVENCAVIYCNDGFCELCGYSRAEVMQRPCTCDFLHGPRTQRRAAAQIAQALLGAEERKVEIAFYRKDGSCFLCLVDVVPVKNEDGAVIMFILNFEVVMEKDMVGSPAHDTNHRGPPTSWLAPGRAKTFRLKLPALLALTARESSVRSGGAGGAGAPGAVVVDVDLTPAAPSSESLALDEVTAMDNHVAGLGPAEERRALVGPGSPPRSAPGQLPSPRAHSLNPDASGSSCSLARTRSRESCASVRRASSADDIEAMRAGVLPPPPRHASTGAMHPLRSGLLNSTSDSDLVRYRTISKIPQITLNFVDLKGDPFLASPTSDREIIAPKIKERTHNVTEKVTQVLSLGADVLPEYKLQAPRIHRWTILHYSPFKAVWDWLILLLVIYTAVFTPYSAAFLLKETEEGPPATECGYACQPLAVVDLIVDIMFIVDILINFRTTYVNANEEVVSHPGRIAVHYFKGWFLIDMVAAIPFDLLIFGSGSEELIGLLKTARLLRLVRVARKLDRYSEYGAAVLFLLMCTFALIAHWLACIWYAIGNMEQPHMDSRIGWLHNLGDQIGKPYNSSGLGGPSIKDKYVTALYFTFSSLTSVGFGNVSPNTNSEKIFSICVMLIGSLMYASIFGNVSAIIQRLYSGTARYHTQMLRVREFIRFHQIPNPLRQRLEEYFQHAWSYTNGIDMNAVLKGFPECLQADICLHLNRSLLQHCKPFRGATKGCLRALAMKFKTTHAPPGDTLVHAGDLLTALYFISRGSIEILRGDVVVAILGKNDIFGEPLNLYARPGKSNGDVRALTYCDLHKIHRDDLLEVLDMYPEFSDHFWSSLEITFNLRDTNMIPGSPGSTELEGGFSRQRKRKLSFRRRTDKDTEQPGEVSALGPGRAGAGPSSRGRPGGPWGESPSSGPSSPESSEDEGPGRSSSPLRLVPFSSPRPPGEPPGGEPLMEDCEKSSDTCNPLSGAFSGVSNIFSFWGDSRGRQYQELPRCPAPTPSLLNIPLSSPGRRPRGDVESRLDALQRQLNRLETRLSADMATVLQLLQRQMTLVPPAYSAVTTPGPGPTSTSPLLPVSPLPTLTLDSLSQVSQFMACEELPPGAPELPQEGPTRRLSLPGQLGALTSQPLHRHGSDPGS
5-hydroxytryptamine receptor 7, sequence (P34969 whole entry): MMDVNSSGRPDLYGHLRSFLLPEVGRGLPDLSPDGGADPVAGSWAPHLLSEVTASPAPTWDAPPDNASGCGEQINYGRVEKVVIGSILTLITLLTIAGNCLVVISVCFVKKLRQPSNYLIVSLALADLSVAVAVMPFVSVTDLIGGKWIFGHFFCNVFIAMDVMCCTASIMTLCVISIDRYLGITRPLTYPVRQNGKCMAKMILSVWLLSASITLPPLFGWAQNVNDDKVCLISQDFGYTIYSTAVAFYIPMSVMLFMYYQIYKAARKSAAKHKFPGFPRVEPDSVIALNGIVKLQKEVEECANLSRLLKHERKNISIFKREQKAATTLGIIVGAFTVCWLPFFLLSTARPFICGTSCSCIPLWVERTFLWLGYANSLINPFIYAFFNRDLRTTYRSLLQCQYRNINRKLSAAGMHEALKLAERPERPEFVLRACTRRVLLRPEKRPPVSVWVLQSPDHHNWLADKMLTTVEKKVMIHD
5-hydroxytryptamine receptor 2A, sequence (P28223 whole entry): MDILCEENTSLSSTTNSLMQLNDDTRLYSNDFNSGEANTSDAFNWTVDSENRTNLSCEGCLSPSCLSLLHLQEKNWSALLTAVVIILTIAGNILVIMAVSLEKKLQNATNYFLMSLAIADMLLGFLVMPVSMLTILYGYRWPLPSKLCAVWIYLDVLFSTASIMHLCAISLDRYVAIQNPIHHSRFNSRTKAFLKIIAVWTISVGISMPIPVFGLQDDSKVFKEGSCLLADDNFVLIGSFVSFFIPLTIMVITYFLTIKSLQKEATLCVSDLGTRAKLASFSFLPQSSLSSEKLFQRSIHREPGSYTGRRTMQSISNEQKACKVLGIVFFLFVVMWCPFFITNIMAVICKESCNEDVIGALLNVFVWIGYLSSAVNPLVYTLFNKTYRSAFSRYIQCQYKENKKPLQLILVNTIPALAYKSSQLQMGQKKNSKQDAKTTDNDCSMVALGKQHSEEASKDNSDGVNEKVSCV
5-hydroxytryptamine receptor 2C, sequence (P28335 whole entry): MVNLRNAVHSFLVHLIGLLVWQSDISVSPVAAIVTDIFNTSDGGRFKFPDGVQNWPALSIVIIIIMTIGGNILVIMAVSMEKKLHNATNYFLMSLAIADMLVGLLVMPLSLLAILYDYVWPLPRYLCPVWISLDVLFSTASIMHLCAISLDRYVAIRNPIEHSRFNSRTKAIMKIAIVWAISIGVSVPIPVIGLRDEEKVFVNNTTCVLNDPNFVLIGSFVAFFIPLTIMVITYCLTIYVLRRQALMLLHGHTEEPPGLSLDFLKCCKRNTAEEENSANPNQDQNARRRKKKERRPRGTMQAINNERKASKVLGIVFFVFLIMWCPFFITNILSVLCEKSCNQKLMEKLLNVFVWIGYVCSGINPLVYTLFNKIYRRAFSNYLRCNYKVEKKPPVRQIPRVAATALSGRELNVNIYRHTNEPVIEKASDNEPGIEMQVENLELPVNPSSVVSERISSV
5-hydroxytryptamine receptor 3A, sequence (P46098 whole entry): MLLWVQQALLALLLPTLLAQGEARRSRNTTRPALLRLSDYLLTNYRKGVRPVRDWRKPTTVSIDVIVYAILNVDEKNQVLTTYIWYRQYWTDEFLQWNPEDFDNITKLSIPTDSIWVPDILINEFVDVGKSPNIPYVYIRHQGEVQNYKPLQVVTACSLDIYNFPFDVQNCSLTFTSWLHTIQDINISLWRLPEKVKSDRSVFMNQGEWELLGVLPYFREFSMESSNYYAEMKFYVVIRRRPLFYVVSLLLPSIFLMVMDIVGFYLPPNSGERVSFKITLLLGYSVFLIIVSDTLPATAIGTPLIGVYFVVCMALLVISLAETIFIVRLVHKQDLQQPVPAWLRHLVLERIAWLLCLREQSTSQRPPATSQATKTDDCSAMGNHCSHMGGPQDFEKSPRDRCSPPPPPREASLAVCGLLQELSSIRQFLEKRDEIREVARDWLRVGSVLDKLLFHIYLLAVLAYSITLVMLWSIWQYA
Muscarinic acetylcholine receptor M1, sequence (P11229 whole entry): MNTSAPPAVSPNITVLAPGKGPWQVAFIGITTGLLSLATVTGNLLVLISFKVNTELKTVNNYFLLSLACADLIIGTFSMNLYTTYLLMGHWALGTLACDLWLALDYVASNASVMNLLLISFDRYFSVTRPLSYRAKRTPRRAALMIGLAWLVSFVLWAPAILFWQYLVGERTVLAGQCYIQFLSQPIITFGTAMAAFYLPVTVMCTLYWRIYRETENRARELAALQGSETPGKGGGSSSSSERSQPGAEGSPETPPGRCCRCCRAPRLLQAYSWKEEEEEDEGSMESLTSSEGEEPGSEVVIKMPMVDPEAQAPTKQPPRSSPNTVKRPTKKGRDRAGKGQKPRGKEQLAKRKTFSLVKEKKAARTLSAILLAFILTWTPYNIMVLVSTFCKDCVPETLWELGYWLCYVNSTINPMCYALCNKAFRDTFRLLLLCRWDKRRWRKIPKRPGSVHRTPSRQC

| Compound | Ki [1] [nM] | hepatocyte CLint at 1 ug/mL (in vitro [2]) [µL/min/1e6 cells] | hepatocyte CLint at 1 ug/mL (in vitro [3]) [µL/min/1e6 cells] | further results |
| --- | --- | --- | --- | --- |
| CCN/C(=N\S(=O)(=O)c1ccccc1Cl)N1CC(CC)C=N1 (stereo unspecified) | 27.8 | 99 | 39 |  |
| CCC1C=NN(/C(=N/S(=O)(=O)c2ccccc2Cl)NCc2ccccc2)C1 (stereo unspecified) | 92 |  |  |  |
| CCC1C=NN(/C(=N/S(=O)(=O)c2ccccc2Cl)Nc2ccccc2)C1 (stereo unspecified) | > 1000 |  |  |  |
| CCC1C=NN(/C(=N/S(=O)(=O)c2ccccc2Cl)NC(C)C)C1 (stereo unspecified) | > 1000 |  |  |  |
| CCN/C(=N\S(=O)(=O)c1ccccc1)N1CC(CC)C=N1 (stereo unspecified) | 33.9 |  |  |  |
| CCCN/C(=N\S(=O)(=O)c1cccc(Cl)c1)N1CC(CC)C=N1 (stereo unspecified) | 14.6 |  |  |  |
| CCC1C=NN(/C(=N/S(=O)(=O)c2cccc(Cl)c2)NC)C1 (stereo unspecified) | 17.8 |  |  |  |
| CCC1C=NN(/C(N)=N/S(=O)(=O)c2cccc(Cl)c2)C1 (stereo unspecified) | 24.2 |  |  |  |
| CCN/C(=N\S(=O)(=O)c1cccc(Cl)c1)N1CC(C)C=N1 (stereo unspecified) | 8 |  |  |  |
| CCN/C(=N\S(=O)(=O)c1cccc(Cl)c1)N1CCC=N1 | 33.9 |  |  |  |
| CCN/C(=N\S(=O)(=O)c1cccc(Cl)c1)N1CCC(C)=N1 | 231 |  |  |  |
| CCC1C=NN(/C(=N/S(=O)(=O)c2cccc(Cl)c2)N(C)C)C1 (stereo unspecified) | > 1000 |  |  |  |
| CCN=C(NS(=O)(=O)c1cccc(Cl)c1)N1N=CC[C@H]1c1ccccc1 |  | 116 | 107 |  |
| CCN=C(NS(=O)(=O)c1cccc(Cl)c1)N1N=CC[C@@H]1c1ccccc1 |  | 107 |  |  |
| CCN/C(=N\S(=O)(=O)c1cccc(C(F)(F)F)c1)N1CC(CC)C=N1 (stereo unspecified) | 17.9 | 116 | 27 |  |
| CCN/C(=N\S(=O)(=O)c1cccc(C)c1)N1CC(CC)C=N1 (stereo unspecified) | 27.4 | 116 | 51 |  |
| CCN/C(=N\S(=O)(=O)c1cccc(OC)c1)N1CC(CC)C=N1 (stereo unspecified) | 26.6 | 92 | 46 |  |
| CCN/C(=N\S(=O)(=O)c1ccc(Cl)c(Cl)c1)N1CC(CC)C=N1 (stereo unspecified) | 7.9 | 198 | 92 |  |
| CCN/C(=N\S(=O)(=O)c1cc(Cl)ccc1Cl)N1CC(CC)C=N1 (stereo unspecified) | 119 | 116 |  |  |

| Compound | Ki [1] [nM] | hepatocyte CLint at 1 ug/mL (in vitro [2]) [µL/min/1e6 cells] | hepatocyte CLint at 1 ug/mL (in vitro [3]) [µL/min/1e6 cells] | further results |
| --- | --- | --- | --- | --- |
| CCN/C(=N\S(=O)(=O)c1c(Cl)cccc1Cl)N1CC(CC)C=N1 (stereo unspecified) | 197 | 126 |  |  |
| CCN/C(=N\S(=O)(=O)c1cccc(Cl)c1F)N1CC(CC)C=N1 (stereo unspecified) | 2.7 | 116 | 36 |  |
| CCN/C(=N\S(=O)(=O)c1ccc2ccccc2c1)N1CC(CC)C=N1 (stereo unspecified) | 17.2 | 139 | 41 |  |
| CCNC(=N[S+]([O-])c1sc2ccc(Cl)cc2c1C)N1CC(CC)C=N1 (stereo unspecified) | 8.5 |  |  |  |
| CCN/C(=N\S(=O)(=O)c1c(Cl)nc2sccn12)N1CC(CC)C=N1 (stereo unspecified) | 7.9 | 116 | 20 |  |
| CCN/C(=N\S(=O)(=O)c1c(C)nn(C)c1Cl)N1CC(CC)C=N1 (stereo unspecified) |  | 53 | 11 |  |
| CCN/C(=N\S(=O)(=O)c1ccc(S(C)(=O)=O)cc1)N1CC(CC)C=N1 (stereo unspecified) |  | 20 | 4 |  |
| CCN/C(=N\S(=O)(=O)c1cccc(Cl)c1)N1CC(C)(C)C=N1 | 24.1 |  |  | Tmax [4]: 0.5 h; bioavailability [5]: 7%; IC50 (Cytochrome P450 3A4): > 10000 nM; Activity (Cavia porcellus [6]): Non-toxic; IC50 (Cytochrome P450 2C19): > 10000 nM; IC50 (Cytochrome P450 2D6): > 10000 nM; fraction unbound at 6 h, 1 µM [7]: 0.01; Kp [8]: 1; half-life [9]: 2 h; half-life [10]: 2 h; IC50 (Cytochrome P450 2C9): > 10000 nM; IC50 (Cytochrome P450 1A2): > 10000 nM; fraction unbound at 5 µM [11]: 0.37; bioavailability [12]: 45%; Ki [13]: 7940 nM; IC50 [14]: > 10000 nM; permeability (LLC-PK1; llc-pk1, 3 h): 41% |
| CCN/C(=N\S(=O)(=O)c1cccc(Cl)c1)N1CC(CC)(CC)C=N1 | 49.9 |  |  |  |
| CCN/C(=N\S(=O)(=O)c1cccc(Cl)c1)N1CC2(C=N1)CCCC2 | 6.4 |  |  |  |
| CCN/C(=N\S(=O)(=O)c1cccc(Cl)c1)N1CC2(C=N1)CCCCC2 | 5.2 |  |  |  |
| CCN/C(=N\S(=O)(=O)c1cccc(Cl)c1)N1CC2(C=N1)CCNCC2 |  | 25 | 3 | Activity (Cavia porcellus [15]): Non-toxic; Activity (Cavia porcellus [16]): Toxic; fraction unbound at 5 µM [11]: 0.34; fraction unbound at 5 µM [17]: 0.41; Ki [18]: 10000 nM; Ki [19]: 10000 nM; Ki ([20]; read-out: pKi (converted)): 10000 nM; Ki ([21]; read-out: pKi (converted)): 10000 nM; Ki [22]: 10000 nM; Ki [23]: 10000 nM; Ki [24]: 10000 nM; Ki [25]: 10000 nM; pKi [26]: 5; IC50 [14]: 7940 nM; permeability (LLC-PK1; llc-pk1, 3 h): 14.7% |
| CCN=C(NS(=O)(=O)c1cccc(Cl)c1)N1CC(CF)(CF)C=N1 | 92 |  |  |  |
| CCN/C(=N\S(=O)(=O)c1cccc(Cl)c1)N1CC(CC)C=N1 (racemic) |  |  |  | Ki [27]: > 1000 nM; Ki [28]: > 1000 nM; Ki ([20]; read-out: Ki): > 1000 nM; Ki ([21]; read-out: Ki): > 1000 nM; Ki [29]: > 1000 nM; Ki (D(2) dopamine receptor): > 1000 nM |
| CCN/C(=N\S(=O)(=O)c1cccc(Cl)c1)N1N=CCC1c1ccccc1 (racemic) |  | 116 | 73 | Ki [27]: > 1000 nM; Ki [28]: > 1000 nM; Ki ([20]; read-out: Ki): > 1000 nM; Ki ([21]; read-out: Ki): > 1000 nM; Ki [29]: > 1000 nM; Ki (D(2) dopamine receptor): > 1000 nM; IC50 [14]: > 10000 nM; permeability (LLC-PK1; LLC-PK1, 3 h): 38.5% |
| CCN/C(=N\S(=O)(=O)c1cccc(Cl)c1)N1N=CCC1c1ccncc1 (racemic) | 322 | 87 | 50 |  |
| CCN/C(=N\S(=O)(=O)c1cccc(Cl)c1)N1N=CCC1c1ccco1 (racemic) | 8.2 | 198 | 92 |  |
| CCN=C(NS(=O)(=O)c1cccc(Cl)c1)N1N=CCC1c1ccc(F)cc1 (racemic) | 138 | 126 | 107 |  |
